Measurements as given in US20020183256A1, “Cytostatic-integrin conjugates having specifically cleavable linking units” (priority 2000, published 2002).
Like-named read-outs stand apart in the source and are kept apart here. *1 amine or outer side, *2 acyl side, *3 side chain or, on linkers, in order; H or OH if unused. Where a SMILES comes first, the peptide text is derived from it. [ ]: non-standard residue; d: D form. The star is where a group is joined. Camptothecin(20R,20-O) = CC[C@]1(O*)C(=O)OCc2c1cc1n(c2=O)Cc2cc3ccccc3nc2-1; X2 = CCCNC(=O)Nc1cccc(S(=O)(=O)Nc2cccc(C(CC(=O)O)NC(=O)Nc3ccc(N*)cc3)c2)c1; X3 = O=C(Nc1cccc(-c2ccc(S(=O)(=O)*)cc2)c1)Nc1nc2ccccc2[nH]1; X5 = O=C(Nc1cccc(-c2cccc(S(=O)(=O)*)c2)c1)Nc1nc2ccccc2[nH]1; X4 = O=C(O)CC(N[*:1])c1cccc(NC(=S)[*:2])c1; CO = O=C([*:1])[*:2]

How the values were obtained:
[1] = target: T1, αvβ3 receptor (Homo sapiens, UniProt P05106+P06756); assay: αvβ3 binding test (echistatin displacement, WGA SPA beads); details: αvβ3 from human A375 cells
T1 construct: αvβ3 from human A375 cells was purified; endogenous in cells; host or cells: human A375 cells (receptor purified from the cells, analogous to Wong et al. 1996)
T1 sequence (P06756 31-889 limits assumed): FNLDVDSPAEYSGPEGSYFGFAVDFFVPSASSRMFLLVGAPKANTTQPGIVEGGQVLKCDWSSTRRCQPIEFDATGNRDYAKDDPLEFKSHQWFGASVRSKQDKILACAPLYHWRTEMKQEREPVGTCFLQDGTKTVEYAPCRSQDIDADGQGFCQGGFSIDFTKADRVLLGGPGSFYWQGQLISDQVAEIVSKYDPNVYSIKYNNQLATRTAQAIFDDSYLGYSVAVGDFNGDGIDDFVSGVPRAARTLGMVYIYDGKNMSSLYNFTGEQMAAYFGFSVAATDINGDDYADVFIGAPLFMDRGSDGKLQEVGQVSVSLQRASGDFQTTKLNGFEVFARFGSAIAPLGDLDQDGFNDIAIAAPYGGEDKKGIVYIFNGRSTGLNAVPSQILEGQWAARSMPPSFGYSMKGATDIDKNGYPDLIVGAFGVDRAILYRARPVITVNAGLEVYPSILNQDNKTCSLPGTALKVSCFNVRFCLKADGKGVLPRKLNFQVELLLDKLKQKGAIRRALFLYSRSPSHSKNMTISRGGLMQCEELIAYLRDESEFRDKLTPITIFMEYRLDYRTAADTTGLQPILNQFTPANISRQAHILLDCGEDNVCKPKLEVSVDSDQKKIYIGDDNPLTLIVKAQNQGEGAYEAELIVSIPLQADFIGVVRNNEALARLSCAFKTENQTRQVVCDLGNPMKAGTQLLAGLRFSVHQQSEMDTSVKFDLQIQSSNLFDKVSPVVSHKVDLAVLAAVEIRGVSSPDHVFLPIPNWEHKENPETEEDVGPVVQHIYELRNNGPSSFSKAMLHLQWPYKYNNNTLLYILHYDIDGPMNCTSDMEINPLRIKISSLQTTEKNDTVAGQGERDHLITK
T1 sequence (P06756 891-1048 partner limits assumed): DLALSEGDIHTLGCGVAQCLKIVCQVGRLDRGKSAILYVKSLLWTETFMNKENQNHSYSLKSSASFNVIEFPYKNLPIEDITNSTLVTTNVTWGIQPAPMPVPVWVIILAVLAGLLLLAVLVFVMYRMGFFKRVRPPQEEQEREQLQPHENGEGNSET
T1 sequence (P05106 27-788): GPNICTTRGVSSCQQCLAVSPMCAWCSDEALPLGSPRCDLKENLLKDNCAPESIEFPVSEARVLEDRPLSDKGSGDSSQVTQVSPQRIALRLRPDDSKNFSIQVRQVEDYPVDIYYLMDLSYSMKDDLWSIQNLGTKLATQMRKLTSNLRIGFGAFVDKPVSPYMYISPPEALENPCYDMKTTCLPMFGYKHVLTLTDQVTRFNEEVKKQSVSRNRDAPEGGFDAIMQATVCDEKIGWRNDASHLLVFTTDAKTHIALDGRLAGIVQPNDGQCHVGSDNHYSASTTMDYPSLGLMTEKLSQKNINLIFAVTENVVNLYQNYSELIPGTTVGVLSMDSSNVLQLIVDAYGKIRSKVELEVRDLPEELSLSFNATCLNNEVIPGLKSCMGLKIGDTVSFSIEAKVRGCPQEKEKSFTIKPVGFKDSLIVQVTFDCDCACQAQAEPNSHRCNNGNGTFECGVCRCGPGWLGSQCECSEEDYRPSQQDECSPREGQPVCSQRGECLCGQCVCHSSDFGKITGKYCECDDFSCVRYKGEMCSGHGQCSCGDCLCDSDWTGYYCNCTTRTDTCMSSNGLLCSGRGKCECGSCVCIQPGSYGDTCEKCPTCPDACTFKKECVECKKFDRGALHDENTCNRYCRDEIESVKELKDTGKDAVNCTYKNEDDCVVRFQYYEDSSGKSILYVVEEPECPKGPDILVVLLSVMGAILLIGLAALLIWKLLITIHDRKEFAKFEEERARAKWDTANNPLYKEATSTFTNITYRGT
Description: αvβ3 from human A375 cells was purified analogously to a procedure which was described by Wong et al. (Molecular Pharmacology, 50, 529-537 (1996)). In each case, 10 μl of αvβ3 (5 ng) in TBS pH 7.6, 2 mM CaCl2, 1 mM MgCl2, 1% n-octylglucopyranoside (Sigma); 10 μl of test substance in TBS pH 7.6, 0.1% DMSO and 45 μl of TBS pH 7.6, 2 mM CaCl2, 1 mM MgCl2, 1 mM MnCl2 were incubated at room temperature for 1 h. In each case, 25 μl of WGA SPA beads (Amersham, 4 mg/ml) and 10 μl of echistatin (0.1 μCi, Amersham, chloramine-T labelled) were then added. After 16 hours at room temperature, the samples were measured in a scintillation measuring apparatus (Wallac 1450).

[2] = test system: HT29; assay: Growth inhibition test (MTT), cytotoxic action on tumour cell lines; format: cell-based, human
Description: (§1) The human large intestine cell lines SW 480 and HT29 (ATCC No. CCL 228 and HTB38 and the mouse melanoma cell line B16F10 (CRL 6475) were grown to confluence in Roux dishes in RPMI 1640 medium with addition of 10% FCS. They were then trypsinized and taken up in RPMI plus 10% FCS to a cell count of 50,000 cells or, for B16F10, 20,000 cells per ml. 100 μl of cell suspension/well were added to a 96 microwell plate and incubated at 37° C. for 1 day in a CO2 incubator. A further 100 μl of RPMI medium and 1 μl of DMSO were then added with the test substances. The growth was checked after day 6. For this, 25 μl of MTT solution (3-(4,5-dimethylthiazol-2-yl)-2,5-diphenyltetrazolium bromide) was added to each well at a starting concentration of 5 mg/ml of H2O. The plate was incubated at 37° C. for 5 hours in a CO2 incubator. The medium was then aspirated and 100 μl of i-propanol/well were added. After shaking with 100 μl of H2O for 30 min, the extinction was measured at 595 nm using a Multiplate Reader (BIO-RAD) 3550-UV).
(§2) The cytostatic action is indicated in Table 2 as an IC50 value, in each case for the individual cell lines.

[3] = test system: SW 480; assay: as above; format: cell-based, human
Description: as §1, §2

[4] = test system: B16F10; assay: as above; format: cell-based, mouse
Description: as §1, §2

[5] = target: T2, MMP-2 (Homo sapiens, UniProt P08253); assay: Cleavage of conjugates by MMP-2 in buffer (HPLC); format: biochemical; details: after 6 h incubation with MMP-2; buffer pH 7.5
T2 construct: purchased Calbiochem
T2 sequence (P08253 110-660): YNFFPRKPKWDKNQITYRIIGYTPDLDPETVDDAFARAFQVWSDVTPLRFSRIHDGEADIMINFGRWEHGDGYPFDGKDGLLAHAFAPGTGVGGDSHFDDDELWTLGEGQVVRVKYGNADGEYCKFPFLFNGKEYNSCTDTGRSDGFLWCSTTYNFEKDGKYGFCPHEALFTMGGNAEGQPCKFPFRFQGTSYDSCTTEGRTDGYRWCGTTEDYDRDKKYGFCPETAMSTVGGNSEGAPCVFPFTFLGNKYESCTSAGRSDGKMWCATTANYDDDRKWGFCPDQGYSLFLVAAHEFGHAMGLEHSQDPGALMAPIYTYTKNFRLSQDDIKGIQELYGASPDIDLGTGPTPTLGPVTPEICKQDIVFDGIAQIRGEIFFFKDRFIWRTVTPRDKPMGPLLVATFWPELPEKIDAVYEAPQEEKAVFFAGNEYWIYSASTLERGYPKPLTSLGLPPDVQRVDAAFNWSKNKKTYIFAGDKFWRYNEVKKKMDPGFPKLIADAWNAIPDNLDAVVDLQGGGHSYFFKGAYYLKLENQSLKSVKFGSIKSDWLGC
Description: 2.5 μl MMP-2 (Calbiochem) with a specific activity of 60 μU/μl are incubated with 10 nM of the conjugates exemplified in the example series 1-25 in 1 ml of a medium consisting of 50 mM Tris-HCl pH 7.5, 0.2 M NaCl, 10 mM CaCL2*2H2O and 0.05% Brij 35. The enzyme mediated cleavage of the conjugates is detected by HPLC analysis using an RP18 (5 μM) column with 70% HClO4/water (0.4% v/v) as eluent A and acentonitrile as eluent B (UV detection at […]). The efficiency of the cleavage is assessed by comparing the peak areas of the intact conjugate (starting material) and the cleavage product (tripeptide conjugate of camptothecin) after 6 h and 24 h incubation (cf. Table 5).

[6] = read-out: IC50 values of the binding to the αvβ3 receptor
[7] = IC50 values of the binding to the αvβ3 receptor
[8] = HT29, MTT after day 6, read-out: IC50 values of the cytotoxic action on tumour cell lines, HT29
[9] = SW480, MTT after day 6, read-out: IC50 values of the cytotoxic action on tumour cell lines, SW480
[10] = B16F10, MTT after day 6, read-out: IC50 values of the cytotoxic action on tumour cell lines, B16F10

| Compound | IC50 [1, 6] | IC50 ([2]; human, 6 days) | IC50 ([3]; human, 6 days) | IC50 ([4]; mouse, 6 days) | MMP-2 mediated cleavage Peak area product/educt x100 [5] | IC50 [1, 7] | IC50 [2, 8] | IC50 [3, 9] | IC50 [4, 10] |
| --- | --- | --- | --- | --- | --- | --- | --- | --- | --- |
| CCCNC(=O)Nc1cccc(S(=O)(=O)Nc2cccc(C(CC(=O)O)NC(=O)Nc3ccc(NC(=S)N4CCC[C@@H]4C(=O)N[C@@H](CC(C)C)C(=O)NCC(=O)N[C@H](CC(C)C)C(=O)N[C@H](Cc4c[nH]cn4)C(=O)N[C@@H](C(=O)O[C@@]4(CC)C(=O)OCc5c4cc4n(c5=O)Cc5cc6ccccc6nc5-4)C(C)C)cc3)c2)c1 (single isomer, unassigned) [Example 3] | 45 nM | 200 nM | 150 nM | 600 nM | 25 |  |  |  |  |
| CCCNC(=O)Nc1cccc(S(=O)(=O)Nc2cccc(C(CC(=O)O)NC(=O)Nc3ccc(NC(=S)N4CCC[C@@H]4C(=O)N[C@@H](CC(C)C)C(=O)NCC(=O)N[C@H](CC(C)C)C(=O)N[C@H](CC(N)=O)C(=O)N[C@@H](C(=O)O[C@@]4(CC)C(=O)OCc5c4cc4n(c5=O)Cc5cc6ccccc6nc5-4)C(C)C)cc3)c2)c1 (single isomer, unassigned) [Example 11] | 300 nM | 200 nM | 150 nM | 400 nM | 20 |  |  |  |  |
| CC[C@]1(OC(=O)[C@H](NC(=O)[C@@H](Cc2c[nH]cn2)NC(=O)[C@@H](CC(C)C)NC(=O)CNC(=O)[C@H](CC(C)C)NC(=O)[C@H]2CCCN2C(=S)Nc2cccc(C(CC(=O)O)NS(=O)(=O)c3ccc(-c4cccc(NC(=O)Nc5nc6ccccc6[nH]5)c4)cc3)c2)C(C)C)C(=O)OCc2c1cc1n(c2=O)Cc2cc3ccccc3nc2-1 (stereo partly drawn) [Example 4] (X3-[X4][dP]LG[dL][dH][dV]-{Camptothecin(20R,20-O)}) |  |  |  |  | 6 | 150 nM | 90 nM | 70 nM | 400 nM |
| CC[C@]1(OC(=O)[C@H](NC(=O)[C@@H](Cc2c[nH]cn2)NC(=O)[C@@H](CC(C)C)NC(=O)CNC(=O)[C@H](CC(C)C)NC(=O)[C@H]2CCCN2C(=S)Nc2cccc(C(CC(=O)O)NS(=O)(=O)c3cccc(-c4cccc(NC(=O)Nc5nc6ccccc6[nH]5)c4)c3)c2)C(C)C)C(=O)OCc2c1cc1n(c2=O)Cc2cc3ccccc3nc2-1 (stereo partly drawn) [Example 5] (X5-[X4][dP]LG[dL][dH][dV]-{Camptothecin(20R,20-O)}) |  |  |  |  | 5 | 6000 nM | 100 nM | 80 nM | 350 nM |
| CCCNC(=O)Nc1cccc(S(=O)(=O)Nc2cccc(C(CC(=O)O)NC(=O)Nc3ccc(NC(=O)N4CCC[C@@H]4C(=O)N[C@@H](CC(C)C)C(=O)NCC(=O)N[C@H](CC(C)C)C(=O)N[C@H](Cc4c[nH]cn4)C(=O)N[C@@H](C(=O)O[C@@]4(CC)C(=O)OCc5c4cc4n(c5=O)Cc5cc6ccccc6nc5-4)C(C)C)cc3)c2)c1 (stereo partly drawn) [Example 6] ({X2-CO}-[dP]LG[dL][dH][dV]-{Camptothecin(20R,20-O)}) |  |  |  |  | 33 | 60 nM | 40 nM | 50 nM | 150 nM |
| CCCNC(=O)Nc1cccc(S(=O)(=O)Nc2cccc(C(CC(=O)O)NC(=O)Nc3ccc(NC(=S)N4CCCC4C(=O)NC(CC(C)C)C(=O)NCC(=O)N[C@H](CC(C)C)C(=O)N[C@@H](C(=O)O[C@@]4(CC)C(=O)OCc5c4cc4n(c5=O)Cc5cc6ccccc6nc5-4)C(C)C)cc3)c2)c1 (some centres unmarked) [Example 8] |  |  |  |  |  | 30 nM | 150 nM | 200 nM | 350 nM |
